The target in one assay is T1, BRD4(1) (Homo sapiens, UniProt O60885).
T1 construct: N-terminally His-tagged bromodomains (BRD4(1) at 20 nM and BRD4(2) at 100 nM); made in house; host or cells: E. coli BL21(DE3)
As to the kind of experiment: Inhibition of tetra-acetylated histone H4 binding to individual BET bromodomains (AlphaScreen). To be noted: His-tagged BRD4(1) 20 nM, biotinylated tetra-acetylated histone H4 peptide, 30 min incubation; read-out: FRET activity BRD4(1). As to the method:
Proteins were cloned and overexpressed with a N-terminal 6×His tag, then purified by nickel affinity followed by size exclusion chromatography. Briefly, E. coli BL21(DE3) cells were transformed with a recombinant expression vector encoding N-terminally Nickel affinity tagged bromodomains from Brd2, Brd3, Brd4. Cell cultures were incubated at 37° C. with shaking to the appropriate density and induced overnight with IPTG. The supernatant of lysed cells was loaded onto Ni-IDA column for purification. Eluted protein was pooled, concentrated and further purified by size exclusion chromatography. Fractions representing monomeric protein were pooled, concentrated, aliquoted, and frozen at −80° C. for use in subsequent experiments.
Binding of tetra-acetylated histone H4 peptide (Millipore) and BET bromodomains was confirmed by Amplified Luminescent Proximity Homogenous Assay (AlphaScreen). N-terminally His-tagged bromodomains (BRD4(1) at 20 nM and BRD4(2) at 100 nM) and biotinylated tetra-acetylated histone H4 (10-25 nM) were incubated in the presence of nickel chelate acceptor beads and streptavidin donor beads (PerkinAlmer, 6760000K) added to a final concentration of 2 μg/mL under green light in a white 96 well microtiter plate (Greiner). For inhibition assays, serially diluted compounds were added to the reaction mixtures in a 0.1% final concentrations of DMSO. Final buffer concentrations were 50 mM HEPES, 100 mM NaCl and 0.1% BSA buffer, pH 7.4 and optimized to 30 min incubation time. Assay plates were read at 570 nm on a Synergy H4 Plate Reader (Biotek). IC50 values were determined from a dose response curve.
(In general: In Alpha technology, singlet oxygen from a donor bead excites a nearby acceptor bead.)

For a further assay, the system named is MV4-11 cells. As to the kind of experiment: Inhibition of cell proliferation in cancer cell lines (MV4-11, CellTiter Aqueous One). In kind it is cell-based. To be noted: Homo sapiens, read-out: Proliferation activity. As to the method: MV4-11 cells (CRL-9591) were plated at a density of 5×10^4 cells per well in 96 well flat bottom plates and treated with increasing concentrations of test compound or DMSO (0.1%) in IMDM media containing 10% FBS and penicillin/streptomycin. Triplicate wells were used for each concentration and a well containing only media was used as a control. Plates were incubated at 37° C., 5% CO2 for 72 h before adding 20 μL of the CellTiter Aqueous One Solution (Promega) to each well and incubating at 37° C., 5% CO2 for an additional 3-4 h. The absorbance was read at 490 nm in a spectrophotometer and the percentage of cell titer relative to DMSO-treated cells was calculated after correcting for background by subtracting the blank well's signal. IC50 values were calculated using the GraphPad Prism software.

In another assay the test system is cMYC. As to the kind of experiment: Inhibition of cMYC expression in cancer cell lines (MV4-11, real-time PCR). The assay is classed as cell-based. To be noted: Homo sapiens, read-out: Myc activity. On the procedure: MV4-11 cells (CRL-9591) were plated at a density of 2.5×10^4 cells per well in 96 well U-bottom plates and treated with increasing concentrations of test compound or DMSO (0.1%) in IMDM media containing 10% FBS and penicillin/streptomycin, and incubated for 3 h at 37° C. Triplicate wells were used for each concentration. Cells were pelleted by centrifugation and harvested using the mRNA Catcher PLUS kit according to manufacturer's instructions. The eluted mRNA isolated was then used in a one-step quantitative real-time PCR reaction, using components of the RNA UltraSense™ One-Step Kit (Life Technologies) together with Applied Biosystems TaqMan® primer-probes for cMYC and Cyclophilin. Real-time PCR plates were run on a ViiA™7 real time PCR machine (Applied Biosystems), data were analyzed, normalizing the Ct values for cMYC to an internal control, prior to determining the fold expression of each sample, relative to the control.

Setting [1] is: MV4-11 cells, 3 h incubation, cMYC mRNA.

Each structure is given as a SMILES string. Structures can show the parent of a compound that is named as a salt. Where two headings read alike, the source gives them in different places.

Regarding `CC(=O)Nc1cnc2nc(C)n(Cc3ccccc3)c2c1` [Example 1, N-(1-Benzyl-2-methyl-1H-imidazo[4,5-b]pyridin-6-yl)acetamide], the IC50 at BRD4(1) fell in the range of 3 to 30 µM.

Turning to `CC(=O)N(C)c1cnc2nc(C)n(Cc3ccccc3)c2c1` [Example 3, N-(1-Benzyl-2-methyl-1H-imidazo[4,5-b]pyridin-6-yl)—N-methylacetamide], the IC50 was 3 to 30 µM in the assay on MV4-11 cells (MV4-11, 72 h); ≤ 0.3 µM at BRD4(1); 3 to 30 µM with cMYC (MV4-11, 3 h).

Take `C=CC(=O)N(C)c1cnc2nc(C)n(Cc3ccccc3)c2c1` [Example 4, N-(1-Benzyl-2-methyl-1H-imidazo[4,5-b]pyridin-6-yl)-N-methylacrylamide]: the IC50 in the assay with MV4-11 cells (MV4-11 cells, 72 h incubation) is 3 to 30 µM; on BRD4(1) it was ≤ 0.3 µM; in the assay on cMYC (setting [1]), 0.3 to 3 µM.

With `Cc1nc2ncc(N(C)C(=O)CCCl)cc2n1Cc1ccccc1` [Example 5, N-(1-Benzyl-2-methyl-1H-imidazo[4,5-b]pyridin-6-yl)-3-chloro-N-methylpropanamide], the IC50 in the assay with MV4-11 cells (MV4-11 cells, 72 h incubation) was in the range of 3 to 30 µM; on BRD4(1) it was 0.3 to 3 µM; with cMYC (setting [1]), 3 to 30 µM.

For the compound `CCN(C(C)=O)c1cnc2nc(C)n(Cc3ccccc3)c2c1` [Example 6, N-(1-Benzyl-2-methyl-1H-imidazo[4,5-b]pyridin-6-yl)-N-ethylacetamide], the IC50 was in the range of 0.3 to 3 µM at BRD4(1) and 3 to 30 µM in the assay with cMYC (MV4-11, 3 h).

On to `C=CC(=O)N(CC)c1cnc2nc(C)n(Cc3ccccc3)c2c1` [Example 7, N-(1-Benzyl-2-methyl-1H-imidazo[4,5-b]pyridin-6-yl)-N-ethylacrylamide], for which the IC50 at BRD4(1) was 0.3 to 3 µM.

As for `CN(C(=O)CCCl)c1cnc2c(c1)n(Cc1ccccc1)c(=O)n2C` [Example 10, N-(1-Benzyl-3-methyl-2-oxo-2,3-dihydro-1H-imidazo[4,5-b]pyridin-6-yl)-3-chloro-N-methylpropanamide], the IC50 in the assay with MV4-11 cells (MV4-11 cells, 72 h incubation) fell in the range of 3 to 30 µM; on BRD4(1) it was 3 to 30 µM.

Take `CC(=O)N(C)c1cnc2c(c1)n(Cc1ccccc1)c(=O)n2C` [Example 11, N-(1-Benzyl-3-methyl-2-oxo-2,3-dihydro-1H-imidazo[4,5-b]pyridin-6-yl)-N-methylacetamide]: the IC50 in the assay with MV4-11 cells (MV4-11 cells, 72 h incubation) was 3 to 30 µM; at BRD4(1), ≤ 0.3 µM; in the assay with cMYC (setting [1]), 3 to 30 µM.

For `C=CC(=O)N(C)c1cnc2c(c1)n(Cc1ccccc1)c(=O)n2C` [Example 12, N-(1-Benzyl-3-methyl-2-oxo-2,3-dihydro-1H-imidazo[4,5-b]pyridin-6-yl)-N-methylacrylamide], the IC50 was 3 to 30 µM in the assay with MV4-11 cells (MV4-11 cells, 72 h incubation); ≤ 0.3 µM at BRD4(1); 3 to 30 µM with cMYC (setting [1]).

Turning to `CCN(C(C)=O)c1cnc2c(c1)n(Cc1ccccc1)c(=O)n2C` [Example 13, N-(1-Benzyl-3-methyl-2-oxo-2,3-dihydro-1H-imidazo[4,5-b]pyridin-6-yl)-N-ethylacetamide], at BRD4(1), the IC50 was in the range of 0.3 to 3 µM.

In the case of `C=CC(=O)N(CC)c1cnc2c(c1)n(Cc1ccccc1)c(=O)n2C` [Example 14, N-(1-Benzyl-3-methyl-2-oxo-2,3-dihydro-1H-imidazo[4,5-b]pyridin-6-yl)-N-ethylacrylamide], the IC50 at BRD4(1) is 0.3 to 3 µM.

As to `C=CC(=O)N(C)c1cnc2nc(N3CCOCC3)n(Cc3ccccc3)c2c1` [Example 16, N-(1-Benzyl-2-morpholino-1H-imidazo[4,5-b]pyridin-6-yl)-N-methylacrylamide], the IC50 with MV4-11 cells (MV4-11 cells, 72 h incubation) was 3 to 30 µM; on BRD4(1), ≤ 0.3 µM; in the assay on cMYC (setting [1]), 3 to 30 µM.

As to `C=CC(=O)N(C)c1cnc2nc(N3CCC3)n(Cc3ccccc3)c2c1` [Example 17, N-(2-(Azetidin-1-yl)-1-benzyl-1H-imidazo[4,5-b]pyridin-6-yl)-N-methylacrylamide], the IC50 is 0.3 to 3 µM in the assay on MV4-11 cells (MV4-11, 72 h); ≤ 0.3 µM at BRD4(1); 0.3 to 3 µM in the assay on cMYC (MV4-11, 3 h).

Turning to `C=CC(=O)N(C)c1cnc2nc(N(C)C)n(Cc3ccccc3)c2c1` [Example 19, N-(1-Benzyl-2-(dimethylamino)-1H-imidazo[4,5-b]pyridin-6-yl)-N-methylacrylamide], the IC50 was 3 to 30 µM in the assay on MV4-11 cells (MV4-11 cells, 72 h incubation); ≤ 0.3 µM on BRD4(1); 0.3 to 3 µM in the assay with cMYC (setting [1]).

As for `C=CC(=O)N(C)c1cnc2nc(NC3CCOCC3)n(Cc3ccccc3)c2c1` [Example 20, N-(1-Benzyl-2-((tetrahydro-2H-pyran-4-yl)amino)-1H-imidazo[4,5-b]pyridin-6-yl)-N-methylacrylamide], the IC50 is 0.3 to 3 µM with MV4-11 cells (MV4-11 cells, 72 h incubation); ≤ 0.3 µM on BRD4(1); 0.3 to 3 µM with cMYC (setting [1]).

`C=CC(=O)N(C)c1cnc2nc(NC)n(Cc3ccccc3)c2c1` [Example 21, N-(1-Benzyl-2-(methylamino)-1H-imidazo[4,5-b]pyridin-6-yl)-N-methylacrylamide]: the IC50 is 0.3 to 3 µM in the assay with MV4-11 cells (MV4-11 cells, 72 h incubation); ≤ 0.3 µM on BRD4(1); 0.3 to 3 µM in the assay with cMYC (setting [1]).

For the compound `C=CC(=O)N(C)c1cnc2nc(N3CC=CC3)n(Cc3ccccc3)c2c1` [Example 22, N-(1-Benzyl-2-(2,5-dihydro-1H-pyrrol-1-yl)-1H-imidazo[4,5-b]pyridin-6-yl)-N-methylacrylamide hydrochloride], the IC50 in the assay with MV4-11 cells (MV4-11 cells, 72 h incubation) was 0.3 to 3 µM; on BRD4(1) it was ≤ 0.3 µM; in the assay with cMYC (setting [1]), 0.3 to 3 µM.

With `C=CC(=O)N(C)c1cnc2nc(N3CCCCC3)n(Cc3ccccc3)c2c1` [Example 23, N-(1-Benzyl-2-(piperidin-1-yl)-1H-imidazo[4,5-b]pyridin-6-yl)-N methylacrylamide], the IC50 in the assay on MV4-11 cells (MV4-11 cells, 72 h incubation) was in the range of 3 to 30 µM; on BRD4(1) it was 0.3 to 3 µM; in the assay on cMYC (setting [1]), 0.3 to 3 µM.

In the case of `C=CC(=O)N(C)c1cnc2nc(N3C4CCC3CC(O)C4)n(Cc3ccccc3)c2c1` (centres unmarked) [Example 24, N-(1-Benzyl-2-(3-hydroxy-8-azabicyclo[3.2.1]octan-8-yl)-1H-imidazo[4,5-b]pyridin-6-yl)-N-methylacrylamide], the IC50 in the assay on MV4-11 cells (MV4-11, 72 h) is 3 to 30 µM; on BRD4(1) it was ≤ 0.3 µM; in the assay on cMYC (MV4-11, 3 h) it was 0.3 to 3 µM.

In the case of `C=CC(=O)N(C)c1cnc2nc(N3CC[C@H](CO)C3)n(Cc3ccccc3)c2c1` [Example 25, (S)—N-(1-Benzyl-2-(3-(hydroxymethyl)pyrrolidin-1-yl)-1H-imidazo[4,5-b]pyridin-6-yl)-N-methylacrylamide], the IC50 was 0.3 to 3 µM with MV4-11 cells (MV4-11 cells, 72 h incubation); ≤ 0.3 µM on BRD4(1); < 0.3 µM in the assay with cMYC (setting [1]).

On to `C=CC(=O)N(C)c1cnc2nc(N3CC(CO)C3)n(Cc3ccccc3)c2c1` [Example 26, N-(1-Benzyl-2-(3-(hydroxymethyl)azetidin-1-yl)-1H-imidazo[4,5-b]pyridin-6-yl)-N-methylacrylamide], for which the IC50 with MV4-11 cells (MV4-11 cells, 72 h incubation) was 3 to 30 µM; at BRD4(1) it was ≤ 0.3 µM; in the assay with cMYC (setting [1]), 0.3 to 3 µM.

For `C=CC(=O)N(C)c1cnc2nc(N3C[C@H]4CN(C)C[C@H]4C3)n(Cc3ccccc3)c2c1` [Example 27, N-(1-Benzyl-2-((3aR,6aS)-5-methylhexahydropyrrolo[3,4-c]pyrrol-2(1H)-yl)-1H-imidazo[4,5-b]pyridin-6-yl)-N-methylacrylamide], the IC50 in the assay on MV4-11 cells (MV4-11 cells, 72 h incubation) was in the range of 3 to 30 µM; at BRD4(1) it was 0.3 to 3 µM; in the assay on cMYC (setting [1]) it was 3 to 30 µM.

For the compound `CCC(=O)N(C)c1cnc2nc(N3CCCC3)n(Cc3ccccc3)c2c1` [Example 28, N-(1-Benzyl-2-(pyrrolidin-1-yl)-1H-imidazo[4,5-b]pyridin-6-yl)-N-methylpropionamide], the IC50 in the assay with MV4-11 cells (MV4-11 cells, 72 h incubation) is 0.3 to 3 µM; on BRD4(1), ≤ 0.3 µM; in the assay on cMYC (setting [1]) it was 0.3 to 3 µM.

With `CN(C(=O)C1CC1)c1cnc2nc(N3CCCC3)n(Cc3ccccc3)c2c1` [Example 29, N-(1-Benzyl-2-(pyrrolidin-1-yl)-1H-imidazo[4,5-b]pyridin-6-yl)-N-methylcyclopropanecarboxamide], the IC50 in the assay on MV4-11 cells (MV4-11 cells, 72 h incubation) was 0.3 to 3 µM; at BRD4(1), ≤ 0.3 µM; in the assay with cMYC (setting [1]), 0.3 to 3 µM.

Source of the values: US20190263799A1, “1H-IMIDAZO[4,5-B]PYRIDINYL AND 2-OXO-2,3-DIHYDRO-1H-IMIDAZO[4,5-B]PYRIDINYL HETEROCYCLIC BET BROMODOMAIN INHIBITORS” (ZENITH EPIGENETICS LTD., priority 2015, published 2019).
